Source: EP0369664B1, “Fish CRF” (THE SALK INSTITUTE FOR BIOLOGICAL STUDIES, priority 1988, dated 1994)
Where two headings read alike, the source gives them in different places. No end group written: not given here.

Assays:
gastric acid production = conditions: in vivo; cited from earlier work
[1] = tested on: secretion of ACTH and β-endorphin; conditions: reported; cited from earlier work
[2] = in mammals; reported; cited from earlier work
[3] = tested on: secretion of ACTH and β-END-LI; assay: secretion of ACTH and β-END-LI, test system not specified
[4] = vasodilatory-hypotensive activity, lowering of systemic blood pressure; type: in vivo; conditions: for vasodilatory-hypotensive activity: called mammalian for Example III only; for systemic blood pressure: in vivo
ACTH and β-endorphin = ACTH and β-endorphin activities in vitro and in vivo, general statement
[5] = tested on: cultured rat pituitary cells; assay: secretion of ACTH and β-endorphin by cultured rat pituitary cells; type: cell-based
[6] = tested on: ACTH and β-END-LI secretion; assay: ACTH and β-END-LI secretion in vivo in several rat preparations
[7] = tested on: pituitary-adrenalcortical axis; assay: stimulation of the pituitary-adrenalcortical axis and levels of pro-opiomelanocortin products; conditions: in vivo
[8] = blood pressure in the rat; type: in vivo
[9] = blood pressure in the dog; type: in vivo
[10] = lowering of blood pressure, general statement; type: in vivo; conditions: for an extended time period
teleost fish pituitaries = assay: secretion of ACTH by teleost fish pituitaries; type: cell-based
[11] = activity and learning performance after administration into the ventricles; type: in vivo; conditions: rats, administered into the ventricles

oCRF: ovine corticotropin releasing factor, characterized in 1981, U.S. Patent No. 4,415,558 (H-SQEPPISLDLTFHLLREVLEMTKADQLAQQAHSNRKLLDIA-NH2; ends and bridges not checked; UniProt P01142 148-188, looked up)
gastric acid production (gastric acid production): inhibits
secretion of ACTH [1]: stimulating
secretion of β-endorphin [1]: stimulating
blood pressure [2]: lowering

Ac-SEEPPISLDLTFHLLREVLEMARAEQLAQQAHSNRKMMEIF-NH2 [II]
secretion of ACTH [3]: stimulates
secretion of β-END-LI [3]: stimulates
vasodilatory-hypotensive activity [4]: causes vasodilatory-hypotensive activity
systemic blood pressure [4]: lowering

SEEPPISLDLTFHLLREVLEMARAEQLAQQAHSNRKMMEIF-NH2 [Example I]
ACTH activies (ACTH and β-endorphin): stimulates
β-endorphin activies (ACTH and β-endorphin): stimulates
secretion of ACTH [5]: stimulates
secretion of β-endorphin [5]: stimulates
ACTH secretion [6]: stimulates
β-END-LI secretion [6]: stimulates
levels of ACTH, β-END, β-lipotropin, other pro-opiomelanocortin gene products and corticosterone [7]: elevates
pituitary-adrenalcortical axis [7]: profoundly stimulates
blood pressure [8]: marked fall
blood pressure [9]: sustained depression
blood pressure [10]: substantially lowers
secretion of ACTH (teleost fish pituitaries): stimulates
activity [11]: increases
learning performance [11]: improves

PPISLDLTFHLLREVLEMARAEQLAQQAHSNRKMMEIF-NH2 [III]
secretion of ACTH [3]: stimulates
vasodilatory-hypotensive activity [4]: significant
systemic blood pressure [4]: lowering

Sauvagine
secretion of ACTH [1]: stimulating
secretion of β-endorphin [1]: stimulating
blood pressure [2]: lowering
